According to ChEMBL document CHEMBL1201862, “PubChem BioAssay data set” (2004):
The source made the active and inactive calls.

Experiments:
HEK293 [1] = experiment: NOD1 signaling inhibitors, primary screen, cell-based, luminescence, uHTS (AID 1578); assay type: functional; details: Homo sapiens
HEK293 [2] = experiment: cells; assay type: functional, cell-based; details: Homo sapiens
HEK293 [3] = experiment: cells; assay type: functional, cell-based; details: Homo sapiens; remark: listed apart in the source
HEK293 [4] = experiment: NOD2 signaling inhibitors in MDP-stimulated cells, cell-based, uHTS, luminescence (AID 2001); assay type: functional; details: Homo sapiens
Tumor necrosis factor = Tumor necrosis factor (Homo sapiens, UniProt P01375); experiment: TNFa-triggered NF-kB activation inhibitors, SAR follow-up, cell-based, revised (AID 2337); assay type: functional
[5] = target: Nucleotide-binding oligomerization domain-containing protein 1 (Homo sapiens, UniProt Q9Y239); experiment: NOD1 signaling inhibitors, SAR follow-up, revised (AID 2333); assay type: functional
[6] = target: Nucleotide-binding oligomerization domain-containing protein 2 (Homo sapiens, UniProt Q9HC29); experiment: PubChem AID 2334; assay type: functional
[7] = target: T1, Microphthalmia-associated transcription factor (Homo sapiens, UniProt O75030); experiment: TRPM1 promoter luciferase signal decrease, dose response, MITF inhibitor project, cell-based, SK-MEL-5, cherry-picked, set 3 (AID 493073); assay type: functional
T1 sequence (O75030 whole entry): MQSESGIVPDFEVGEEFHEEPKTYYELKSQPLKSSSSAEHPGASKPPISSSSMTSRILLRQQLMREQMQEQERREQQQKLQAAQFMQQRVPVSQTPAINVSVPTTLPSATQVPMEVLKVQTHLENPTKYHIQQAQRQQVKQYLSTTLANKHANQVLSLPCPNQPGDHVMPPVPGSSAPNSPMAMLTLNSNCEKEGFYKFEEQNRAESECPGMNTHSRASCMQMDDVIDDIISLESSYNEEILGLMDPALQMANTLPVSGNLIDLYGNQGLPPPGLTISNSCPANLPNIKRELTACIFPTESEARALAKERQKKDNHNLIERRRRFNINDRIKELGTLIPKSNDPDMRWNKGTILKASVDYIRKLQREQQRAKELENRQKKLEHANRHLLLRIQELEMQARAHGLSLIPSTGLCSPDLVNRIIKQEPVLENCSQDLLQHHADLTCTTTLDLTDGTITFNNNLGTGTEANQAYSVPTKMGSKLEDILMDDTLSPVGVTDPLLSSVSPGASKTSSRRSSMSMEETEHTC

[8] = cytotoxicity in HEK-293T cells, dose response, cytotoxicity control for BCR NF-kB inhibitor project, luminescence, B-cell screen hits (AID 489021); assay type: functional, cell-based;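 also: HEK-293T cells carrying an NF-kB luciferase reporter; cells exposed to compound for about 14 hours before viability readout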
Jurkat = experiment: SAR Analysis of small molecule inhibitors of […] specific antigen receptor-induced NF-kB activation in a Jurkat cell line using a luminescence assay - Set 3. [Related pubchem assays (depositor defined):AID435022, AID435025, AID465]; assay type: functional, cell-based; details: Homo sapiens
HEK293 [9] = experiment: SAR Analysis of small molecule inhibitors of B-cell specific antigen receptor-induced NF-kB activation in a HEK-293T cell line using a luminescence assay - Set 2. [Related pubchem assays (depositor defined):AID435022, AID435025, AID489021]; assay type: functional, cell-based; details: Homo sapiens
HEK293 [10] = experiment: cytotoxicity in HEK293T NF-kB-Luc cells, SAR follow-up, cytotoxicity control for NF-kB activator project, cell-based, resazurin fluorescence (AID 493251); assay type: functional; details: Homo sapiens
HEK293 [11] = experiment: cells; details: Homo sapiens
[12] = target: G-protein coupled receptor 35 (Homo sapiens, UniProt Q9HC97); experiment: SAR Analysis for the identification of Selective Antagonists of ERK1/2 Activity in GPR35-Overexpressing U2OS Cells. [Related pubchem assays: 2079, 2058 ]; assay type: functional, cell-based
[13] = target: G-protein coupled receptor 55 (Homo sapiens, UniProt Q9Y2T6); experiment: GPR55 antagonists, SAR follow-up, counter-screen for GPR35 antagonist project, imaging, image-based (AID 2397); assay type: functional
[14] = target: Beta-adrenergic receptor kinase 1 (Homo sapiens, UniProt P25098); experiment: GRK2 inhibitors displacing RNA aptamer, dose response, biochemical, flow cytometry beads, FAM-aptamer, powder set 1 (AID 588720)
[15] = target: Intestinal-type alkaline phosphatase (Mus musculus, UniProt P24822); experiment: PubChem AID 488785; assay type: functional
[16] = target: T2, Alkaline phosphatase, tissue-nonspecific isozyme (Homo sapiens, UniProt P05186); experiment: TNAP enzyme inhibition by screening hits, dose response, selectivity assay for mouse IAP inhibitor project, biochemical, human TNAP, uHTS hits (AID 488906); assay type: functional
T2 sequence (P05186 whole entry): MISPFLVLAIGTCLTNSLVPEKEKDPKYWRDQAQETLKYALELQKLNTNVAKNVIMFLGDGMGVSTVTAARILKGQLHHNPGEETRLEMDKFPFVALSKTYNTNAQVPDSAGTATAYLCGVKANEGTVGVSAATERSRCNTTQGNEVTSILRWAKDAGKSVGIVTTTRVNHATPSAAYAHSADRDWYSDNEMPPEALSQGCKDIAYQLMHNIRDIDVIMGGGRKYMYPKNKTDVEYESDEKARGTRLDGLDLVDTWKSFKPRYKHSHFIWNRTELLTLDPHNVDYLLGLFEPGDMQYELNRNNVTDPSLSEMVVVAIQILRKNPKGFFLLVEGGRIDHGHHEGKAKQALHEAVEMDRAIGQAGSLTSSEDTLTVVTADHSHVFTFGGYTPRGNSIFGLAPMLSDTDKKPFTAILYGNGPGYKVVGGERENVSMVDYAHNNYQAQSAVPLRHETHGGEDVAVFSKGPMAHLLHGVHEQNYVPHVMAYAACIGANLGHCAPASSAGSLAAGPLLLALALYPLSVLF

[17] = target: Intestinal-type alkaline phosphatase (Homo sapiens, UniProt P09923); experiment: inhibition of human intestinal alkaline phosphatase – biochemical, dose response (AID 488876); assay type: functional
[18] = target: T3, Long-chain-fatty-acid--AMP ligase FadD28 (Mycobacterium tuberculosis, UniProt P9WQ59); experiment: Fluorescence polarization aasay to screen for inhibitors that compete for the binding of FadD28 to a bisubstrate Measured in Biochemical System Using Plate Reader - 2147-01_Inhibitor_Dose_CherryPick_Activity.; assay type: functional, Mycobacterium tuberculosis H37Rv
T3 sequence (P9WQ59 whole entry): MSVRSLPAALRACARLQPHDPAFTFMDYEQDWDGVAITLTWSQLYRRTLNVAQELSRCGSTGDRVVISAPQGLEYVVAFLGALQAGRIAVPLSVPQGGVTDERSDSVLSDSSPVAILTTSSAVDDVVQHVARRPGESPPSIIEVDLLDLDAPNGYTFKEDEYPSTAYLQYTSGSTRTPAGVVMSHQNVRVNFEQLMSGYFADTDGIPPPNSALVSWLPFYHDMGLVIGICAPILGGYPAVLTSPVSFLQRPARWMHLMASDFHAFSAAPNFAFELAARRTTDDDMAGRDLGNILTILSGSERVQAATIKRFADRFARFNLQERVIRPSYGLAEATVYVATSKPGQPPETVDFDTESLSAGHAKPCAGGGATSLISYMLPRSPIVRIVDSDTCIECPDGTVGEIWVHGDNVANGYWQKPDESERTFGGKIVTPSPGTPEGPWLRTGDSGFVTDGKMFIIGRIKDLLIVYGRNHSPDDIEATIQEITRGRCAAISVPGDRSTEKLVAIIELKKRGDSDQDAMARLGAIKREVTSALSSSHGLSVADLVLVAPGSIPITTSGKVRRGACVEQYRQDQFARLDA

Chain of G-protein coupled receptor 55 (Q9Y2T6 whole entry): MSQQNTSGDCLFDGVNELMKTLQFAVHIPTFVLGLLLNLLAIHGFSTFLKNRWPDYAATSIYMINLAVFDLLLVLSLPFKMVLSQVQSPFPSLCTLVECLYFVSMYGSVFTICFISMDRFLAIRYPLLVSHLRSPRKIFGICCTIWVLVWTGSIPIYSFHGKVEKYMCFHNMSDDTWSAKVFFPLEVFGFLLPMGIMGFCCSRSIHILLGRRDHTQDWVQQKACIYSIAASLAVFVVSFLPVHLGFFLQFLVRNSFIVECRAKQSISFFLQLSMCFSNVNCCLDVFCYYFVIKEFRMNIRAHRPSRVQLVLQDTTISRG
Chain of Beta-adrenergic receptor kinase 1 (P25098 whole entry): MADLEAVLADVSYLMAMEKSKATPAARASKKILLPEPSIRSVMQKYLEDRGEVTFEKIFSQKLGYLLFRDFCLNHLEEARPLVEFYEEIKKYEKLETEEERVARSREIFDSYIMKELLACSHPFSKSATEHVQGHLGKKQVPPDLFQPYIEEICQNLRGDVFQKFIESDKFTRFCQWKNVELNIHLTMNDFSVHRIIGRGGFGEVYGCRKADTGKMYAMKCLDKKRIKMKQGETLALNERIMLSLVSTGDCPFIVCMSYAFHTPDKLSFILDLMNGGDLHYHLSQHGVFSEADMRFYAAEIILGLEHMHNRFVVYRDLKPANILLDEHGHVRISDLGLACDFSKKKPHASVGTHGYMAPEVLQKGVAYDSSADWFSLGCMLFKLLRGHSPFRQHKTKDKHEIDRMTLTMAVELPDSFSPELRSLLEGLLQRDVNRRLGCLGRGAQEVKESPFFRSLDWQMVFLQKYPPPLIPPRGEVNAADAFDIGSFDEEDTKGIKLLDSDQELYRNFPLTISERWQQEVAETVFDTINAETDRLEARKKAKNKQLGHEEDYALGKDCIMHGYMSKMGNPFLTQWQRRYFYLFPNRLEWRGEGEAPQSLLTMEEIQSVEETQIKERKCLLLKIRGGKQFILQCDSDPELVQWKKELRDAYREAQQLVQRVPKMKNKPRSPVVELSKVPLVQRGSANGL
Chain of Nucleotide-binding oligomerization domain-containing protein 1 (Q9Y239 whole entry, the tested form may be a part): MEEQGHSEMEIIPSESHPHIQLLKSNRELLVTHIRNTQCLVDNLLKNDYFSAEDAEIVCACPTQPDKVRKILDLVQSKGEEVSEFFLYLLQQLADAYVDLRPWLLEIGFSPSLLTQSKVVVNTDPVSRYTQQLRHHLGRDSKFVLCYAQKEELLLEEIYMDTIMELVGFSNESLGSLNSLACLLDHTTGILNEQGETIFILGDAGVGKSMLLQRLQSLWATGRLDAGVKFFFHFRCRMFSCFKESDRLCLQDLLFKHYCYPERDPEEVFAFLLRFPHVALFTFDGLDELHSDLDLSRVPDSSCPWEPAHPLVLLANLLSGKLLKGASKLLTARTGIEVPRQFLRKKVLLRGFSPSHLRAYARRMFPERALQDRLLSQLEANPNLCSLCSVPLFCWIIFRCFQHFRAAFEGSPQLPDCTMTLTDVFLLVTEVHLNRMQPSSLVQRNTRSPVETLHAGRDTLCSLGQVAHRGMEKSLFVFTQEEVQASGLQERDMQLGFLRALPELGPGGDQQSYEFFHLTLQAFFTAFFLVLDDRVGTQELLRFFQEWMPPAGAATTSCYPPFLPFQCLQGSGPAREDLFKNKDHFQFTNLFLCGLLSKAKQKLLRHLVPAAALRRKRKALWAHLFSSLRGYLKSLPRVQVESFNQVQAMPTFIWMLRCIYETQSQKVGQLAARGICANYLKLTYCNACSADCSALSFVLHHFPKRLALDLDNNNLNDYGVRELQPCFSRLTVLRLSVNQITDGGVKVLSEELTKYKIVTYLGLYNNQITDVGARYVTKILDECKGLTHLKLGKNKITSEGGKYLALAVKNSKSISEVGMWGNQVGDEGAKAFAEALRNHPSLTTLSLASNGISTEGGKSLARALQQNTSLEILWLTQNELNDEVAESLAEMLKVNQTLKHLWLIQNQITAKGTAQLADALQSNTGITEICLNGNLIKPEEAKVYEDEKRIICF
Chain of Nucleotide-binding oligomerization domain-containing protein 2 (Q9HC29 whole entry, the tested form may be a part): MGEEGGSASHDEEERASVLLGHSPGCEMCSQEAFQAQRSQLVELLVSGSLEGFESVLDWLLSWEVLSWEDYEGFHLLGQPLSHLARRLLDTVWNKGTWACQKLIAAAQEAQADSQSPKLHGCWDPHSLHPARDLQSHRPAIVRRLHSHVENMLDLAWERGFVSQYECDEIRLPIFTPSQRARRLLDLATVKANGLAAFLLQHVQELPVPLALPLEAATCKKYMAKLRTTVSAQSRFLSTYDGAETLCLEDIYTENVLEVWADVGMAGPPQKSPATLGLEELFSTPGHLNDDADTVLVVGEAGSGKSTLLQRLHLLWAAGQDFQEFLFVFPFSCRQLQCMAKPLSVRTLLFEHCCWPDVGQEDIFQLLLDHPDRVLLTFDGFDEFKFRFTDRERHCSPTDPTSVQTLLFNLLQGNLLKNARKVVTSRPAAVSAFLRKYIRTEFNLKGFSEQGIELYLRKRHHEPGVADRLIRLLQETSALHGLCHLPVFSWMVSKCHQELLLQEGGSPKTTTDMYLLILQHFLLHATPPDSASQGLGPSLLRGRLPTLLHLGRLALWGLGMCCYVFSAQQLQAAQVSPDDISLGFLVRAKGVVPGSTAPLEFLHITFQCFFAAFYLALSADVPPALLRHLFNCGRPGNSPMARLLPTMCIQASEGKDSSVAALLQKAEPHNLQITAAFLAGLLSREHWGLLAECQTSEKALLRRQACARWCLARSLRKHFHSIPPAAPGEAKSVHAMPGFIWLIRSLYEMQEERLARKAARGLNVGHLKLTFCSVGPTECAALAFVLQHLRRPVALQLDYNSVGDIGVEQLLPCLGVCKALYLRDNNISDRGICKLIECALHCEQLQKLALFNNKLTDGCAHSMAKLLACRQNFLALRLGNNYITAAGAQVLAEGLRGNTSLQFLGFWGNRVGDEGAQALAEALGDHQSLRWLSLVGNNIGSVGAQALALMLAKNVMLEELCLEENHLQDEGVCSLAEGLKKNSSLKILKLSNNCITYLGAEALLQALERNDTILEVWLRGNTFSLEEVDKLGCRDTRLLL
Chain of Tumor necrosis factor (P01375 whole entry, the tested form may be a part): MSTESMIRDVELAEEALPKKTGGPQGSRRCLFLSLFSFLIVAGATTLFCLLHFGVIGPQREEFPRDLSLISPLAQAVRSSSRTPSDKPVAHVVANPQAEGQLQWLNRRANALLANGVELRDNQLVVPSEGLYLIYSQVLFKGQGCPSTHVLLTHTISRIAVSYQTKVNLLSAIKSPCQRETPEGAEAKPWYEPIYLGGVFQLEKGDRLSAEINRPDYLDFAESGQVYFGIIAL
Chain of Intestinal-type alkaline phosphatase (Mus musculus, UniProt P24822) (P24822 whole entry): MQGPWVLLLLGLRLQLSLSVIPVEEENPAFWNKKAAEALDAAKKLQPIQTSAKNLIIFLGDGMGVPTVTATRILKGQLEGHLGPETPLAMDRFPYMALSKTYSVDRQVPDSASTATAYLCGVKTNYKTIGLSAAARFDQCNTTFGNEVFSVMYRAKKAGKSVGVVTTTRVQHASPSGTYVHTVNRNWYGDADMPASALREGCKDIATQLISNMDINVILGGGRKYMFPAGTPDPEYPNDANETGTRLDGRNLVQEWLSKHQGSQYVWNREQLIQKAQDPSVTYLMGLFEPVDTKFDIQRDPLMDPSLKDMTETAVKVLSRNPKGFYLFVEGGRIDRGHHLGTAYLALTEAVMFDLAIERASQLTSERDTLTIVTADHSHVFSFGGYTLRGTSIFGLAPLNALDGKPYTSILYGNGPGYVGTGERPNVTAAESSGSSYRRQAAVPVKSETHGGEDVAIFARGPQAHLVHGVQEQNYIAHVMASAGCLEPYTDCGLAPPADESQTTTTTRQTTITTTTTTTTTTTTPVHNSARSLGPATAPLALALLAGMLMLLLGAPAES
Chain of G-protein coupled receptor 35 (Q9HC97 whole entry): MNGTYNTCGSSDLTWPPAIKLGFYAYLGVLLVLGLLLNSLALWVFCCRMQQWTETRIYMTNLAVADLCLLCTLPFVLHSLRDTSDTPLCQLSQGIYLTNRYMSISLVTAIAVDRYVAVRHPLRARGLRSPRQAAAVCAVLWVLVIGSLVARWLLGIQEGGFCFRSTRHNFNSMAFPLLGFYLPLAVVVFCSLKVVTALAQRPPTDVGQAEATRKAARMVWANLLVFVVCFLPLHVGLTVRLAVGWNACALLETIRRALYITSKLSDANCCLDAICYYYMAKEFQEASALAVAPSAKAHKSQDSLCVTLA
Chain of Intestinal-type alkaline phosphatase (Homo sapiens, UniProt P09923) (P09923 whole entry): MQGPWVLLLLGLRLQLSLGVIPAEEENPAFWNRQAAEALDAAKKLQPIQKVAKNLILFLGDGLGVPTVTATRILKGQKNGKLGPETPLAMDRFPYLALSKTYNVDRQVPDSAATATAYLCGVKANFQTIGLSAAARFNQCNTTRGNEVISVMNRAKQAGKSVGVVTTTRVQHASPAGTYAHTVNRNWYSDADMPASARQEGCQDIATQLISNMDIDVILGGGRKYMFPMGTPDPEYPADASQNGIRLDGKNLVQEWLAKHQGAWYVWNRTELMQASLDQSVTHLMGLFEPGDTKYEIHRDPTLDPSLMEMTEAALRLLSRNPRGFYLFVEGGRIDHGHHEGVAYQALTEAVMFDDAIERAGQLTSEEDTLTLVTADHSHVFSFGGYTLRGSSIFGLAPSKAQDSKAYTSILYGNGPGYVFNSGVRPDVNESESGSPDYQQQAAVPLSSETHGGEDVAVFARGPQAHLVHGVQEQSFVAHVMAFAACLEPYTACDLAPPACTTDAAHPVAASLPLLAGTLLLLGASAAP

## CC(C)(C)c1ccc(-c2noc(CCC(=O)NCc3ccco3)n2)cc1
HEK293 [1]
  EC50: 8.42 µM (active)
HEK293 [2]
  IC50: > 20 µM (inactive)
HEK293 [3]
  IC50: > 20 µM (inactive)
HEK293 [4]
  IC50: > 20 µM (inactive)
Tumor necrosis factor
  IC50: 6.76 µM (active)
[5]
  IC50: 3.68 µM (active)
[6]
  IC50: 2.16 µM (active)
[7]
  AC50: 0.122 µM (active)
[8]
  IC50: > 80 µM (inactive)
Jurkat
  IC50: > 80 µM (inactive)
HEK293 [9]
  IC50: 2.39 µM (active)
HEK293 [10]
  IC50: 49.2 µM (inactive)
HEK293 [11]
  IC50: > 20 µM (inactive)

## Cc1c(C(=O)Nc2ccc3c(c2)OCCO3)sc2ncnc(N3CCC(C)CC3)c12
[12]
  IC50: 20.6 µM (not active)
[13]
  IC50: 21.4 µM (inactive)

## Cc1cccc(N2CCN(C(=O)CCS(=O)(=O)c3ccc(Br)cc3)CC2C)c1 (stereo not given)
[14]
  EC50: 2 µM (active)

## O=C(NN1C(=O)/C(=C/c2ccc(O)c(O)c2)SC1=S)c1ccccc1
[15]
  IC50: 1.28 µM (active)
[16]
  IC50: 20 µM (active)
[17]
  IC50: > 100 µM (inactive)
[18]
  AC50: 1.41 µM (active)
